Reference: ChEMBL document CHEMBL5055643, “Sophoraflavanone G Resensitizes ABCG2-Overexpressing Multidrug-Resistant Non-Small-Cell Lung Cancer Cells to Chemotherapeutic Drugs” (J Nat Prod, 2021)
The source made the active and inactive calls. No cut-off for these calls is given here.

Assays:
[1] = system: A549; assay: Chemo-sensitizing activity against human A549 cells assessed as reversal fold at 2 uM measured after 72 hrs in presence of mitoxantrone by CCK8 assay relative to control; format: functional
[2] = Cytotoxicity against mitoxantrone-selected ABCG2-overexpressing human NCI-H460/MX20 cells assessed as cell viability at 1 to 5 uM measured after 72 hrs by CCK8 assay; format: ADME, cell-based; conditions: dose 1-5 µM, read-out: Activity
[3] = system: HEK293; assay: Chemo-sensitizing activity against human HEK293 cells assessed as reversal fold at 5 uM measured after 72 hrs in presence of mitoxatrone by CCK8 assay relative to control; format: functional
[4] = system: NCI-H460; assay: Effect on ABCG2 protein expression in mitoxantrone-selected ABCG2-overexpressing human NCI-H460/MX20 cells at 1 to 5 uM incubated for 72 hrs by immunoblot analysis; format: functional, cell-based; conditions: dose 1-5 µM
[5] = system: KB-V1; assay: Chemo-sensitizing activity against ABCB1-oveexpressing human KB-V1 cells assessed as reversal fold at 5 uM measured after 72 hrs in presence of colchicine by CCK8 assay relative to control; format: functional
[6] = system: A549; assay: Chemo-sensitizing activity against human A549 cells assessed as reversal fold at 5 uM measured after 72 hrs in presence of SN-38 by CCK8 assay relative to control; format: functional
[7] = system: HEK293; assay: Chemo-sensitizing activity against ABCB1-overexpressing human HEK293/MDR19 cells assessed as reversal fold at 5 uM measured after 72 hrs in presence of colchicine by CCK8 assay relative to control; format: functional
[8] = system: OVCAR-8; assay: Chemo-sensitizing activity against human OVCAR-8 cells assessed as reversal fold at 1 uM measured after 72 hrs in presence of paclitaxel by CCK8 assay relative to control; format: functional
[9] = target: T1, Broad substrate specificity ATP-binding cassette transporter ABCG2 (Homo sapiens, UniProt Q9UNQ0); assay: Inhibition of ABCG2 in mitoxantrone-selected ABCG2-overexpressing human NCI-H460/MX20 cells assessed as increase in intracellular mitoxantrone accumulation incubated for 1 hr in presence of mitoxantrone by flow cytometry; format: cell-based
T1 sequence (Q9UNQ0 whole entry): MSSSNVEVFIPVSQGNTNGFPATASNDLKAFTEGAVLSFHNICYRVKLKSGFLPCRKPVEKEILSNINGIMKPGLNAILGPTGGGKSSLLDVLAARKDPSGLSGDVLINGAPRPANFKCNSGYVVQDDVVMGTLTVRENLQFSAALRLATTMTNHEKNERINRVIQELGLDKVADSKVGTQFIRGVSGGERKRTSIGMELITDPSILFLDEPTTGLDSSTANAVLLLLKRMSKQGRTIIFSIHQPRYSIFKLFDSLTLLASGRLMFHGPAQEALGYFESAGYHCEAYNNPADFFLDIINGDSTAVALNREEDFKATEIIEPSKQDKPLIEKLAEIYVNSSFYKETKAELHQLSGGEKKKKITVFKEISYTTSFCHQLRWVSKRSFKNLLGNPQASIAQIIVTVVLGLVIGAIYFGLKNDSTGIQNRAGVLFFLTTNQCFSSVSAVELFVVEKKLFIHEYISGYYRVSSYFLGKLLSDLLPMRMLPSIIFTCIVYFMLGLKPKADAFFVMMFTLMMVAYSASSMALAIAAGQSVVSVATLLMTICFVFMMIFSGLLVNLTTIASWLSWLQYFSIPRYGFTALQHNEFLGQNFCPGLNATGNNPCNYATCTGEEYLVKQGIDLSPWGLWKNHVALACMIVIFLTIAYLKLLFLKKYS

[10] = system: KB-V1; assay: Chemo-sensitizing activity against ABCB1-oveexpressing human KB-V1 cells assessed as reversal fold at 1 uM measured after 72 hrs in presence of colchicine by CCK8 assay relative to control; format: functional
[11] = system: HEK293; assay: Chemo-sensitizing activity against ABCB1-overexpressing human HEK293/MDR19 cells assessed as reversal fold at 5 uM measured after 72 hrs in presence of paclitaxel by CCK8 assay relative to control; format: functional
[12] = Cytotoxicity against becatecarin-selected ABCG2-overexpressing human A549/Bec150 cells assessed as cell viability at 1 to 5 uM measured after 72 hrs by CCK8 assay; format: ADME, cell-based; conditions: dose 1-5 µM, read-out: Activity
[13] = system: KB-V1; assay: Chemo-sensitizing activity against ABCB1-overexpressing human KB-V1 cells assessed as reversal fold at 2 uM measured after 72 hrs in presence of vincristine by CCK8 assay relative to control; format: functional
[14] = system: A549; assay: Chemo-sensitizing activity against becatecarin-selected ABCG2-overexpressing human A549/Bec150 cells assessed as reversal fold at 5 uM measured after 72 hrs in presence of topotecan by CCK8 assay relative to control; format: functional
[15] = system: A549; assay: Chemo-sensitizing activity against human A549 cells assessed as reversal fold at 5 uM measured after 72 hrs in presence of mitoxantrone by CCK8 assay relative to control; format: functional
[16] = system: KB 3-1; assay: Chemo-sensitizing activity against human KB 3-1 cells assessed as reversal fold at 2 uM measured after 72 hrs in presence of colchicine by CCK8 assay relative to control; format: functional
[17] = system: NCI-H460; assay: Chemo-sensitizing activity against human NCI-H460 cells assessed as reversal fold at 2 uM measured after 72 hrs in presence of topotecan by CCK8 assay relative to control; format: functional
[18] = system: KB-V1; assay: Chemo-sensitizing activity against ABCB1-overexpressing human KB-V1 cells assessed as reversal fold at 5 uM measured after 72 hrs in presence of paclitaxel by CCK8 assay relative to control; format: functional
[19] = system: NCI/ADR-RES; assay: Chemo-sensitizing activity against ABCB1-overexpressing human NCI/ADR-RES cells assessed as reversal fold at 5 uM measured after 72 hrs in presence of paclitaxel by CCK8 assay relative to control; format: functional
[20] = system: KB 3-1; assay: Chemo-sensitizing activity against human KB 3-1 cells assessed as reversal fold at 2 uM measured after 72 hrs in presence of paclitaxel by CCK8 assay relative to control; format: functional
[21] = system: A549; assay: Chemo-sensitizing activity against human A549 cells assessed as reversal fold at 1 uM measured after 72 hrs in presence of SN-38 by CCK8 assay relative to control; format: functional
[22] = system: HEK293; assay: Chemo-sensitizing activity against human HEK293 cells assessed as reversal fold at 5 uM measured after 72 hrs in presence of vincristine by CCK8 assay relative to control; format: functional
[23] = system: NCI/ADR-RES; assay: Chemo-sensitizing activity against ABCB1-overexpressing human NCI/ADR-RES cells assessed as reversal fold at 1 uM measured after 72 hrs in presence of vincristine by CCK8 assay relative to control; format: functional
[24] = system: KB 3-1; assay: Chemo-sensitizing activity against human KB 3-1 cells assessed as reversal fold at 5 uM measured after 72 hrs in presence of vincristine by CCK8 assay relative to control; format: functional
[25] = system: NCI-H460; assay: Chemo-sensitizing activity against mitoxantrone-selected ABCG2-overexpressing human NCI-H460/MX20 cells assessed as reversal fold at 1 uM measured after 72 hrs in presence of mitoxantrone by CCK8 assay relative to control; format: functional
[26] = system: OVCAR-8; assay: Chemo-sensitizing activity against human OVCAR-8 cells assessed as reversal fold at 1 uM measured after 72 hrs in presence of vincristine by CCK8 assay relative to control; format: functional
[27] = system: OVCAR-8; assay: Chemo-sensitizing activity against human OVCAR-8 cells assessed as reversal fold at 2 uM measured after 72 hrs in presence of paclitaxel by CCK8 assay relative to control; format: functional

C=C(C)[C@H](CC=C(C)C)Cc1c(O)cc(O)c2c1O[C@H](c1ccc(O)cc1O)CC2=O [SOPHORAFLAVANONE G]
fold change (FC) [1]: 1.6
viability at 72 h, 5 µM [2]: > 90%
fold change (FC) [3]: 1.1
Activity [4]: inactive
fold change (FC) [5]: 0.8
fold change (FC) [6]: 1.2
fold change (FC) [7]: 0.6
fold change (FC) [8]: 0.8
IC50 [9]: 2120 nM
inhibition (INH) ([9]; human, nci-h460, 1 h, time 1 hrs): Dose-dependent effect
fold change (FC) [10]: 0.9
fold change (FC) [11]: 1.3
viability at 72 h, up to 5 µM [12]: > 90%
fold change (FC) [13]: 1.1
fold change (FC) [14]: 2.9
fold change (FC) [15]: 1.8
fold change (FC) [16]: 1.1
fold change (FC) [17]: 2.1
fold change (FC) [18]: 1.6
fold change (FC) [19]: 1.4
fold change (FC) [20]: 1.1
fold change (FC) [21]: 1
fold change (FC) [22]: 0.9
fold change (FC) [23]: 1
fold change (FC) [24]: 1.7
fold change (FC) [25]: 1.9
fold change (FC) [26]: 1
fold change (FC) [27]: 1
